ChEMBL document CHEMBL3997813, “Selective inhibition of monoamine oxidase A by purpurin, an anthraquinone” (Bioorg Med Chem Lett, 2017)
Values belong to the compound of their own block, whether it stands above or below them.

Key:
[1] = target: T1, Amine oxidase [flavin-containing] A (Homo sapiens, UniProt P21397); test: Inhibition of recombinant human liver MAO-A expressed in yeast using kynuramine as substrate preincubated for 3 mins followed by substrate addition by double reciprocal plot analysis
T1 sequence (P21397 whole entry): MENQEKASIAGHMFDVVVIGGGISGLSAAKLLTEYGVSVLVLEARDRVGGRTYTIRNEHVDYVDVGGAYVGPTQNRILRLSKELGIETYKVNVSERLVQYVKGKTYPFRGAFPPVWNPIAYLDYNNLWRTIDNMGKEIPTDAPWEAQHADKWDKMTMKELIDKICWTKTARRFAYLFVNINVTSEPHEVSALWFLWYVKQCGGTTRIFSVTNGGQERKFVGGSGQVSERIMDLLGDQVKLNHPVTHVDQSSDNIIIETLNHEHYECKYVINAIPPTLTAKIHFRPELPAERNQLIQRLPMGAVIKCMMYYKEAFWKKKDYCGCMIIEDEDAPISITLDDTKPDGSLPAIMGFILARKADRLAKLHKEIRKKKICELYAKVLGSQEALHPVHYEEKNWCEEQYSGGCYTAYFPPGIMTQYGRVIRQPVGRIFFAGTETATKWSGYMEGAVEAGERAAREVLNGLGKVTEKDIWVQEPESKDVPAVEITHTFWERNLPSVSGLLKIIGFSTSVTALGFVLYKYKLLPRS

[2] = target: T1, Amine oxidase [flavin-containing] A; test: Irreversible inhibition of recombinant human MAO-A using kynuramine as substrate assessed as residual activity at 100 times IC50 preincubated for 10 mins followed by 100 times compound dilution
[3] = target: T1, Amine oxidase [flavin-containing] A; test: Competitive inhibition of recombinant human MAO-A using varying levels of kynuramine substrate after 5 mins by Lineweaver-Burk plot analysis
[4] = target: T1, Amine oxidase [flavin-containing] A; test: Inhibition of recombinant human MAO-A using kynuramine as substrate incubated for 10 mins
[5] = target: T2, Amine oxidase [flavin-containing] B (Homo sapiens, UniProt P27338); test: Inhibition of recombinant human MAO-B using benzylamine as substrate preincubated for 15 mins
T2 sequence (P27338 whole entry): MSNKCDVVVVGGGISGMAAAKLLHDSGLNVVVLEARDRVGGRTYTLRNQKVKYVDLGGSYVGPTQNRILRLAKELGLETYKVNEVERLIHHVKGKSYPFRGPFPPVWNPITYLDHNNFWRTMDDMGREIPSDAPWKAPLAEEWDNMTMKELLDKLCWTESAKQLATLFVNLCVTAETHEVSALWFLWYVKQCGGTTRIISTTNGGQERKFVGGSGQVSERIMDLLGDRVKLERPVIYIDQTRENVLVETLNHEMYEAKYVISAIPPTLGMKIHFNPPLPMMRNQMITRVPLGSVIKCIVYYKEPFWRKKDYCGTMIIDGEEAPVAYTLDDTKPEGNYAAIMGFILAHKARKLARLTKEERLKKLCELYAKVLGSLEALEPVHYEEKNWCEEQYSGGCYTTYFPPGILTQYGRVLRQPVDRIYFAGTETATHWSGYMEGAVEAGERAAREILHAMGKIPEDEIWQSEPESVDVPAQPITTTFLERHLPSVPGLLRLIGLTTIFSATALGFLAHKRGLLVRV

[6] = target: T2, Amine oxidase [flavin-containing] B; test: Inhibition of recombinant human MAO-B using benzylamine as substrate at 40 uM after 15 mins relative to control; conditions: 0.25 h
[7] = target: T1, Amine oxidase [flavin-containing] A; test: Time-dependent inhibition of recombinant human MAO-A preincubated up to 30 mins followed by addition of 0.2 mM of kynuramine as substrate
[8] = target: T1, Amine oxidase [flavin-containing] A; test: Inhibition of recombinant human MAO-A assessed as residual activity at 5 uM using 0.2 mM kynuramine as substrate incubated for 10 mins; conditions: read-out: Activity
[9] = target: T1, Amine oxidase [flavin-containing] A; test: Reversible inhibition of recombinant human MAO-A assessed as residual activity at 5 uM preincubated for 10 mins in presence of kynuramine substrate followed by re-addition of 0.2 mM of substrate measured after 10 mins; conditions: read-out: Activity
[10] = target: T1, Amine oxidase [flavin-containing] A; test: Inhibition of recombinant human MAO-A assessed as residual activity at 5 uM using 0.4 mM of kynuramine as substrate after 10 mins; conditions: read-out: Activity
[11] = target: T1, Amine oxidase [flavin-containing] A; test: Reversible inhibition of recombinant human MAO-A using kynuramine as substrate assessed as residual activity at 100 times IC50 preincubated for 10 mins followed by 100 times compound dilution
[12] = target: T1, Amine oxidase [flavin-containing] A; test: Competitive inhibition of recombinant human MAO-A using 0.01 to 0.5 mM kynuramine substrate by Lineweaver-Burk plot analysis

Compound: Cn1ccc2c3ccccc3nc-2c1
Ki [1]: 1430 nM

Compound: C#CCN(C)CCCOc1ccc(Cl)cc1Cl [CLORGILINE]
Activity [2]: 24.9 to 47.9%

Ki [3]: 1840 nM
Compound: CNc1ccccc1-c1nc(C(=O)OC)cs1

IC50 [4]: 2500 nM
IC50 [5]: > 40000 nM
inhibition at 40 µM [6]: 23.3%
TDI [7]: Active
activity at 5 µM [8]: 36.6%
activity at 5 µM [9]: 55.2%
activity at 5 µM [10]: 54.4%
Activity [11]: 63.9 to 67.2%
Ki [12]: 422 nM
Compound: O=C1c2ccccc2C(=O)c2c(O)c(O)cc(O)c21 [PURPURIN]

IC50 [4]: 30100 nM
IC50 [5]: > 60000 nM
Compound: O=C1c2ccccc2C(=O)c2c1ccc(O)c2O [ATHRAQUINONES A]
